Experimental data from patent US20230414588A1, “COMPOSITIONS AND METHODS FOR TREATING PATIENTS WITH AMYOTROPHIC LATERAL SCLEROSIS (ALS)” (CURASEN THERAPEUTICS, INC., priority 2022, published 2023).
“Also recorded” adds a separate entry of the source.

Tests used:
[1] = Cerebral blood flow after a single dose of Compound 03-5 with or without nadolol; format: in vivo, human; settings: single dose Compound 03-5 in the absence or presence of 3 mg nadolol
From the text: Data are plotted as mean (±SEM) percent change in cerebral blood flow from baseline in brain regions of interest for movement (the precentral gyrus) and mood, anhedonia and cognition (hippocampus, thalamus, amygdala).

[2] = Peripheral effects (heart rate by ECG, potassium, glucose) of Compound 03-5 with or without nadolol in healthy volunteers; format: in vivo, human
Protocol: Healthy volunteers were enrolled into 2 cohorts in a study to undertake within-subject dose titration of Compound 03-5 and/or nadolol in order to explore doses/dose combinations that mitigate peripheral effects of Compound 03-5, e.g. on heart rate, while preserving possible central effects of Compound 03-5 on cerebral perfusion and pupillary light reflex.
Eight healthy subjects aged 18-50 years were enrolled into Cohort D1 and received escalating doses of Compound 03-5 (3-12 mg) administered once daily 2 hours follow pre-administration of nadolol (1-40 mg). On all dosing days, study drug(s) were administered orally after an overnight fast of at least 8 hours.
(§1) In Cohort D2, 8 healthy volunteers aged 55-75 years were admitted on Day −1 for a 5-day confinement period at the research facility. During this confinement, subjects received escalating doses of open label Compound 03-5 (1-10 mg) once-daily from Day 1 through Day 3 2 hours after pre-administration of open-label nadolol (3 mg) one each for the 3 dosing days according to the schematic in FIG. 17. Subjects remained in-residency until all study procedures are completed on Day 4.

[3] = CANTAB cognition battery, Cohort D2 (Compound 03-5 with 3 mg nadolol); format: in vivo, human
Protocol: as §1
Compound 03-5 dose administration. Compound 03-5 was administered as escalating doses on Day 1 (1 mg), Day 2 (3 mg) and Day 3 (10 mg). CANTAB was conducted twice in all subjects on the day prior to start of dosing (Day −1) to familiarize subjects with the platform, and prior to dosing and approximately 3 hours after Compound 03-5 administration on Days 1, 2, and 3.

[4] = Cerebral blood flow / cerebral perfusion by MRI-ASL after clenbuterol (with or without nadolol) or pindolol; settings: for cerebral blood flow measured by MRI-ASL (FIG. 2): healthy volunteers, single dose, dose not stated in legend
[5] = 80 μg clenbuterol alone, single dose, patients
[6] = Immediate word recall test (CANTAB), crossover study of clenbuterol with 1 mg nadolol vs placebo; format: in vivo, human; settings: 80 μg clenbuterol with 1 mg nadolol once daily 14 days vs placebo; patients with neurodegenerative disorders
From the text: The immediate word recall test measures the ability to encode and subsequently retrieve verbal information. Eighteen (18) words are presented, and subjects are subsequently asked to recall them; this is repeated 2 times.

[7] = Facial Expression Recognition Task (FERT), crossover study of clenbuterol with 1 mg nadolol vs placebo; format: in vivo, human; settings: clenbuterol co-administered with low-dose nadolol vs placebo; patients
From the text: The Facial Expression Recognition Task (FERT) assesses the recognition of facial emotions. […] Different intensity levels of each emotion are presented, which increases the ambiguity of the facial expression and the sensitivity of the task.

[8] = Visual verbal learning test (VVLT); format: in vivo, human; settings: single dose; crossover study with placebo
Protocol: The visual verbal learning test (VVLT) is a test for learning and memory (de Haas 2009). Subjects are presented 30 words on a screen, one at a time, for 1 second with a 1-second interval between words over a total of […]. This is repeated in 3 trials. After each trial, subjects are asked to recall as many words as they can. After the third trial, there is a delay of 2.5 hours and subjects are then tested once for delayed recall. […] The effect for clenbuterol is an improvement in approximately 1.5 to 2 correctly recalled words, which is clinically meaningful. Since this was a crossover study, everyone who completed Part A was dosed with the 3 agents plus placebo.

[9] = Adaptive tracking test (visuomotor coordination and vigilance); format: in vivo, human; settings: single dose 160 μg clenbuterol
From the text: Adaptive tracking measures visuomotor coordination and vigilance. In this test, the subject uses a joystick to move a small dot so that it stays within a continuously moving circle on a computer screen (Boland 1984). During the test, the speed of the circle is adjusted in response to the subject's ability to keep the dot in the circle, ensuring that the test is adapted to the individual subject. […] The improvement shown by subjects is in the same range as that seen with subjects treated with the acetylcholinesterase inhibitor donepezil, which is in clinical use for the treatment of mild to moderate AD (Groeneveld 2016).

[10] = monotherapy Compound 03-5 0.3-6 mg, healthy volunteers

Which results are given for `CC(C)(C)NC[C@H](O)c1cccc(C#N)n1` [Compound 03-5, (S)-6-(2-(tert-butylamino)-1-hydroxyethyl)picolinonitrile]?
cerebral blood flow from baseline (precentral gyrus, hippocampus, thalamus, amygdala) [1]: robust, global increases; mean maximum increase in heart rate ([2]; 6 mg Compound 03-5 after pre-administration of 1 mg nadolol): 7 beats per minute; blood potassium concentrations [2, 10]: dose-dependent decreases; heart rate, change from baseline (triplicate ECG) [2, 10]: dose-dependent increases; cognition, performance in CANTAB battery ([3]; Cohort D2, Compound 03-5 1, 3 and 10 mg on Days 1, 2, 3 with 3 mg nadolol, healthy adults 55-75 years): Improvements in cognition; also recorded: improvements in performance

With `CC(C)(C)NCC(O)c1cc(Cl)c(N)c(Cl)c1` (centres unmarked) [clenbuterol] as the molecule, how does the “cerebral perfusion increase as measured by CBF” value ([4]; clenbuterol 40 μg) read?
Its value is “minimal increase”.

And the “improvements in perfusion in brain areas relevant to neurodegenerative disorders” value ([4]; clenbuterol 80 and 160 μg)?
The value was about 25%.

And the “increase in cerebral perfusion, precentral gyrus” value ([4]; clenbuterol 80 and 160 μg)?
The value was 20-40%.

And the “cerebral perfusion increase as measured by CBF” value ([4]; clenbuterol doses below 30 μg)?
The value was “do not produce significant cerebral perfusion increases”.

What about the “cerebral blood flow measured by MRI-ASL (FIG. 2)” value [4] of the same molecule?
The value was “increases”.

What about the “cerebral blood flow from the baseline” value ([4]; patients, single dose clenbuterol 30 to 160 μg and/or nadolol 5 mg, tracked 3 days) of the same molecule?
Its value is “robust global increase”.

And the “increase in hippocampal perfusion, average” value ([4]; single dose 80 μg clenbuterol, 6 healthy subjects, ROI hippocampus)?
The value was 25%.

What about the “cerebral blood flow (CBF) / cerebral perfusion relative to baseline” value ([4]; single dose clenbuterol 160 μg) of the same molecule?
The value was “global increases; also recorded: robust global increase; also recorded: robust, global increase”.

And the “cerebral blood flow (CBF) relative to baseline” value ([4]; single dose clenbuterol 160 μg with nadolol 5 mg)?
The value was “global increases; also recorded: robust global increase”.

What about the “cerebral blood flow (CBF) relative to baseline” value ([4]; single dose clenbuterol 20 to 160 μg, tracked 3 days) of the same molecule?
Its value is “robust global increase”.

What about the “glucose in the blood, change from baseline” value [5] of the same molecule?
The value was “increases”.

And the “heart rate, change from baseline” value [5]?
Its value is “increases”.

What about the “potassium in the blood, change from baseline” value [5] of the same molecule?
The value was “decreases”.

What about the “number of words correctly recalled, immediate verbal recall” value [6] of the same molecule?
The value was “statistically significant increase”.

And the “accuracy of correctly identifying happy facial expressions (FERT)” value [7]?
The value was “statistically significant increase”.

And the “effect on VVLT / number of words recalled correctly” value [8]?
Its value is “improvements in cognition; also recorded: positive effects”.

And the “performance in adaptive tracking (percent time dot kept within moving circle)” value [9]?
The value was “improved performance; also recorded: improves”.

What about the “cognition as measured by adaptive tracking and word recall” value ([9]; healthy subjects, preliminary data) of the same molecule?
The value was “improves cognition”.

Which “effect of nadolol on blood potassium decrease induced by Compound 03-5” value ([2]; 3 mg nadolol, cohort D2) does the source give for `CC(C)(C)NCC(O)COc1cccc2c1CC(O)C(O)C2` (centres unmarked) [nadolol] here?
The value was “inhibited”.

What about the “effect of nadolol on heart rate increase induced by Compound 03-5” value ([2]; 3 mg nadolol, cohort D2) of the same molecule?
Its value is “inhibited”.

And the “effect of nadolol on peripheral effects of Compound 03-5 (heart rate, glucose, potassium, tachycardia, tremor, palpitations)” value ([2]; Cohort D1, nadolol 1 mg up to 40 mg, Compound 03-5 3-12 mg)?
Its value is “blocked”.

And the “effect of nadolol on peripheral effects of Compound 03-5 (heart rate, glucose, potassium)” value ([2]; Cohort D2, nadolol 3 mg, Compound 03-5 1-10 mg)?
Its value is “blocked”.

What about the “effect of nadolol on heart rate increase, hyperglycemia and hypokalemia of Compound 03-5” value ([2]; Cohort D2 and other cohorts, 1 mg nadolol pre-administered, Compound 03-5 oral up to 6 mg) of the same molecule?
The value was “substantially attenuated”.

What about the “effect of nadolol on effects of Compound 03-5 on blood glucose and potassium, tachycardia, tremor and palpitations” value ([2]; pre-administration of 1 mg nadolol, earlier cohorts) of the same molecule?
Its value is “attenuation”.

What about the “effect of nadolol on pro-cognitive central effects of the β2-AR agonist” value ([3]; low dose nadolol 3 mg) of the same molecule?
The value was “without inhibiting”.

With `CC(C)NCC(O)COc1cccc2[nH]ccc12` (centres unmarked) [pindolol] as the molecule, how does the “cerebral blood flow measured by MRI-ASL (FIG. 2)” value [4] read?
Its value is “lack of increase”.

For `CC(C)(C)NCC(O)c1ccc(O)c(CO)c1` (centres unmarked) [salbutamol], which “effect on VVLT / number of words recalled correctly” value [8] is on record?
Its value is “improvements in cognition; also recorded: positive effects”.
